The record followed here is patent publication US9682928B2 (NeuroPro Therapeutics, Inc., priority 2009, dated 2017).

Data set [1] can be described thus: Tolerability after oral administration. It counts as in vivo.
Data set [2] concerns GABAA-IPSCs, hippocampal slices (CA1 pyramidal cell layer). The experiment in a line: In vitro hippocampal slice recordings of miniature and spontaneous IPSCs. It counts as cell-based. To be noted: two experiments. The protocol: Ion flux in neuronal cells was measured using standard techniques. Kandel and Schwartz Principles of Neural Science 2nd Edition (1985), see, e.g., pages 128-131. Recording was performed in vitro in hippocampal slices (CA1 pyramidal cell layer). For recording GABAA-IPSCs, glutamatergic and GABAB transmission was blocked by adding DNOX (50 μM), AP-5 (50 μM), and SCH50911 ([…]) into the medium. The intracellular solution comprised CsCl and OX314.

A short description of another data set: in vivo. To be noted: dog.
The subject of a further data set is rats. Kind of data set: Fear potentiated startle (FPS) test in rats. It counts as in vivo, rat. To be noted: i.v.; furosemide 100 mg/kg, bumetanide 70 mg/kg. The protocol: FPS is a commonly used assessment of therapeutic value of anxiolytic compounds in the rat. Rats received a 30 min period of habituation to the FPS apparatus. 24-hr later baseline startle amplitudes were collected. The rats will be divided into two matched groups based on baseline startle amplitudes. Following baseline startle amplitude collection 20 light/shock pairings were delivered on 2 sessions over 2 consecutive days (i.e., 10 light/shock pairings per day). On the final day, one group of rats received an injection (i.v.) of a bumetanide analog and the other group received vehicle only. Immediately following injections, startle amplitudes were assessed during startle alone trials and startle plus fear (light followed by startle) trials. Fear potentiated startle (light+startle amplitudes minus startle alone amplitudes) was compared between the treatment groups.
Animals were trained and tested in four identical stabilimeter devices (Med-Associates). Briefly, each rat was placed in a small Plexiglas cylinder. The floor of each stabilimeter consists of four 6-mm-diameter stainless steel bars spaced 18 mm apart through which shock can be delivered. Cylinder movements result in displacement of an accelerometer where the resultant voltage is proportional to the velocity of the cage displacement. Startle amplitude is defined as the maximum accelerometer voltage that occurs during the first 0.25 sec after the startle stimulus is delivered. The analog output of the accelerometer is amplified, digitized on a scale of 0-4096 units and stored on a microcomputer. Each stabilimeter is enclosed in a ventilated, light-, and sound-attenuating box. All sound level measurements were made with a Precision Sound Level Meter. The noise of a ventilating fan attached to a sidewall of each wooden box produces an overall background noise level of 64 dB. The startle stimulus is a 50 ms burst of white noise (5 ms rise-decay time) generated by a white noise generator. The visual conditioned stimulus used was illumination of a light bulb adjacent to the white noise source. The unconditioned stimulus was a 0.6 mA foot shock with duration of 0.5 sec, generated by four constant-current shockers located outside the chamber. The presentation and sequencing of all stimuli were under the control of the microcomputer.
FPS procedures consisted of 5 days of testing; during days 1 and 2 baseline startle responses were collected, days 3 and 4 light/shock pairings were delivered, day 5-testing for fear potentiated startle was conducted.
Matching. On the first two days all rats were placed in the Plexiglas cylinders and 3 min later presented with 30 startle stimuli at a 30 sec interstimulus interval. An intensity of 105 dB was used. […]

A further data set has as its system mouse. Kind of data set: Formalin test (acute/early and late phase) in mice. It counts as in vivo. The protocol: The formalin test was performed according to the method of Tjølsen, et al. (October 1992) “The formalin test: an evaluation of the method.” Pain 51(1): 5-17. An injection of 0.5% formalin is made into the plantar region of the right hind paw of a mouse. This elicits a distinct behavioral profile in response to the formalin injection characterized by the mouse licking the affected paw. The behavior is characteristically biphasic in nature. For example, immediately following the injection the mouse intensely licks the paw for approximately 5-10 minutes (“min.”) This initial behavior was considered phase 1 (acute) and is thought to be mediated primarily by chemical activation of local C-fibers. The acute phase is followed by a brief latent (usually <5 min) period where there is little or no behavioral activity. A more prolonged (about 20 to 30 min) period of licking then ensues which constitutes phase 2 of the response (late phase). See e.g., Tjølsen, et al. (Feb. 7, 1991) “Antinociceptive effect of paracetamol in rats is partly dependent on spinal serotonergic systems. Eur J Pharmacol. 193(2): 193-201 and Tjølsen, et al. (June 1991) Lesions of bulbo-spinal serotonergic or noradrenergic pathways reduce nociception as measured by the formalin test. Acta Physiol Scand. 142(2): 229-36, the disclosures of each of which are hereby incorporated by reference in its entirety.
It is in these tubes that mice are later observed for the licking activity for the duration of the experiment. Following the conditioning, the test substance was administered i.p. in a dose equivalent to the MES ED50 and the mouse returned to its home tube. At the TPE of the drug, the formalin is injected subdermally into the plantar surface of the right hind foot. It is given in a volume of 20 μl with a 27 gauge stainless steel needle attached to a Hamilton syringe. The bevel of the needle was placed facing down toward the skin surface. […] The cumulative length of licking for each 2-min time period was measured. […] Animals are euthanized following the conclusion of the experiment.
Area under the curve (AUC) and subsequent percent of control for drug-treated animal groups is determined using the GraphPad Prism Version 3.03. Total AUC was calculated for both the test and control groups for both the acute and inflammatory phases. The AUC for individual animals for each phase was also calculated and converted to percentage of total AUC of control. The average and S.E.M. for both the drug treated and control percentages were calculated and tested for significant difference.

Several values for one entry are separate records, joined by “and”; a condition that tells them apart may be missing. Equal entries are not always repeated.

As for `CCCCN(CCCC)c1cc(C(=O)O)cc(S(N)(=O)=O)c1Oc1ccccc1` [NTP-2014, 3-Aminosulfonyl-5-N,N-dibutylamino-4-phenoxybenzoic acid], the CNS side effects entry in data set [1] (after oral administration) is on record as “no CNS side effects”. For the same compound, the Toxicological tolerability entry in data set [1] (in vivo) is recorded as “well-tolerated”. The “Mean interval between inhibitory events, spontaneous IPSCs, with NTP-2014” value in data set [2] (from 257 ms (FIG. 34A) and from 535 ms (FIG. 34B)) was 205 ms and 401 ms. For the same compound, the “Mean interval between inhibitory events, miniature IPSCs, with NTP-2014” value in data set [2] (from 315 ms (FIG. 35A) and from 361 ms (FIG. 35B)) was 162 ms and 160 ms. Further, in “in vivo”, the NOAEL (as a rule, the highest dose or exposure tested at which no adverse effect was seen) at 14 day came out at 4.5 mg/kg.

With `CCCCNc1cc(C(=O)O)cc(S(N)(=O)=O)c1Oc1ccccc1` [Bumetanide, reference compound], in the data set with rats, the “Difference score on the test day vs vehicle alone” value was “statistically significantly lower difference score” and the “Difference score one week after treatment vs vehicle alone” value is given as “higher difference score”.

Consider `CCCCNc1cc(C(=O)NN2CCOCC2)cc(S(N)(=O)=O)c1Oc1ccccc1` [NTP-2024, N-Morpholinyl 3-Aminosulfonyl-5-N-butylamino-4-phenoxybenzamide], for which the “Decrease in pain, Formalin Paw Test (Mice) - Late Phase” value in the data set with mouse (346 μmol/kg, 150 mg/kg, p < 0.01) is recorded as 150 mg/kg; >80%. Moreover, the “Decrease in pain, Formalin Paw Test (Mice) - Early Phase” value with mouse (346 μmol/kg, 150 mg/kg, p < 0.05) was 150 mg/kg; ~40%;. In the data set on mouse (150 mg/kg i.p., mice), the “% of Control, Acute” value came out at 58.55%; the “% of Control, Late Phase” value is recorded as 12.54%; the “Treated (AUC of licking time), Acute” value was found to be 80.03; the “Treated (AUC of licking time), Late Phase” value turned out to be 76.39.
